{"source": "paper PMC5335257", "about": "“Promoting in vivo remyelination with small molecules: a neuroreparative pharmacological treatment for Multiple Sclerosis” (Scientific Reports, 2017)", "key": {"[1]": {"tested_on": "spinal cord injury models", "parameters": "method as in PMID 21297958, PMID 23077723", "details": "spinal cord injury models (as well as EAE); cited from earlier work"}, "[2]": {"tested_on": "corpus callosum of cuprizone-fed mice", "test": "In vivo remyelination, cuprizone demyelination model", "parameters": "species or system C57/BL6 male mice", "method": "The protocol used was modified from previously described. Demyelination was induced by feeding 8 weeks old male C57/BL6 mice ad libitum with 0.2% cuprizone (bis-cyclo-hexanone-oxaldihydrazone; Sigma) mixed with milled chow (Altromin) for 5 weeks. A control group was maintained in the same conditions but fed with the chow without cuprizone. After cuprizone withdrawal, mice were intraperitoneally injected on 3 alternate days with PDE7-GSK3 inhibitors (VP1.15 or VP3.15; 10 mg/kg of animal) using a solution of the compound (100 mg/mL in DMSO) diluted 1:50 in a solution of 5% Tocrisolve (Tocris, UK) in distilledwater[36] or with the vehicle. 1 week after the cuprizone withdrawal, mice were transcardially perfused with 4% PFA in phosphate buffer. Another group was maintained for 3 weeks after cuprizone withdrawal and injected with 3 doses per week on alternate days of the PDE7-GSK3 inhibitors (10 mg/kg of animal per dose see above) or the vehicle and then perfused. The corpus callosum of three animals per condition was studied. For histological examination, forebrain coronal sections (20 μm) were taken of the rostral part of the corpus callosum as previously described[80][81] and stained with eriochrome cyanine using a standard protocol in order to study the myelin. Briefly, cryosections on glass slides were immersed in acetone for 5 minutes, dried and submerged in eriochrome cyanine solution (Sigma) for 1 hour and then differentiated in 5% (w/v) iron alum for 5–10 minutes, followed by a second differentiation with borax-ferricyanide solution for 5 minutes. The stained area was measured with the Image J software and related to the total analyzed area. For the immunofluorescence analysis, tissue sections were stained with anti-MBP (1:200; Serotec; Cat#MCA4095) for myelin, anti-PDGFRα (1:200; Santa Cruz; Cat#sc338) for OPCs, anti-CC1 (1:100; Calbiochem, Cat#OP80) and anti-GFAP (Glial fibrillary acidic protein; 1:200; Dako; Cat#Z0334) for astrocytes, and tomato lectin (TL; 1:67; Sigma; Cat#L0651) for microglia. Optical images were acquired using an Olympus BX61 microscope and fluorescence images were taken using a DFC480 FX digital camera (Leica) coupled to a Leica DM5000 B microscope or a confocal SP5 resonant scanner (Leica). Myelin staining (with MBP and eriochrome cyanine) and CC1 staining were quantified by taking pictures of non-overlapping fields of coronal sections of the corpus callosum, between the lateral ventricles (2 fields per section, 5–6 sections of each mice; using a x20 objective) and by measuring the fluorescence intensity or blue staining using the Image J software. The number of OPCs per field was also counted in pictures of the midline of the corpus callosum using the x40 objective (4–6 sections per mice). Astrocytes and microglia were evaluated in pictures of the same area of the corpus callosum using the x40 objective and quantified by measuring the area occupied by GFAP or TL staining respectively using the Image J software (4–6 sections per mice). Data were expressed as the mean ± SEM."}, "PDE7": {"tested_on": "PDE7", "parameters": "method as in PMID 24437940", "details": "read-out: PDE7 inhibition IC50; cited from earlier work"}, "[3]": {"tested_on": "cerebellar slices demyelinated with LPC", "test": "Ex vivo remyelination in cerebellar slice cultures demyelinated with LPC", "type": "cell-based, CD1 P7 mice", "details": "5 μM, 3 days post lesion (3DPL)", "method": "The protocol used was modified from previously described. CD1 P7 mice were decapitated, and their cerebella were dissected into ice-cold HBSS (Invitrogen). 300 μm sagittal slices of cerebellum were cut using a McIllwain tissue chopper, placed on Millicell-CM organotypic culture inserts (3 slices per insert; Millipore) in a medium containing HBSS:BME: horse serum (1:2:1, Invitrogen), 28 mM D (+) - glucose (Normapur), […] L-Glutamine (Invitrogen) and 100 U/mL penicillin, 0.1 mg/mL streptomycin and 0.25 μg/ml Amphotericin B antibiotic anti-mycotic solution (Sigma) and maintained at 5% CO2 and 37 °C. Medium was changed every two days, and after 7 days in culture, demyelination was induced by addition of 0.5 mg/ml LPC (Sigma) to the medium for 15 h. After that, slices were treated with fresh medium containing PDE7-GSK3 or GSK3 inhibitors (VP1.15, VP3.15 or TDZD8; 5 μM). Cultures were maintained for 1 or 3 days post lesion (DPL), and then fixed for 40 minutes and immunostained with anti-MBP antibodies (myelin basic protein –as a marker of myelin; 1:200; Serotec; Cat#MCA4095) and anti-neurofilament antibody (as a marker of axons; 1:200; Abcam; Cat#ab8135). Fluorescence images were taken on a confocal SP5 resonant scanner (Leica Microsystems) at 1μm intervals in white matter areas at x40 magnification. The photographs were merged and co-localisation of both markers was quantified with Image J software using the colocalization highlighter plugin. This measurement was related to the area occupied by axons (neurofilament staining) and normalized with control values showing the data as the mean normalized myelination index ± SEM. Quantification was made in at least three independent experiments."}}, "note": "“Also recorded” adds a separate entry of the source."}
{"smiles": "c1ccc(-c2n/c(=N/CCN3CCOCC3)sn2-c2ccccc2)cc1", "note": "[VP3.15]", "values": [{"measurement": "immunomodulatory effect", "setting": "[1]", "value": "immunomodulatory effect"}, {"measurement": "myelin staining (eriochrome cyanine) in corpus callosum vs vehicle", "setting": "[2]; 10 mg/kg i.p. on 3 alternate days, 1 week after cuprizone withdrawal", "value": "significantly higher myelin staining; also recorded: almost complete remyelination"}, {"measurement": "myelin quantification by MBP immunodetection", "setting": "[2]; 10 mg/kg i.p., after cuprizone withdrawal", "value": "confirmed these results, with similar effects"}, {"measurement": "microglial activation (TL staining) vs vehicle", "setting": "[2]; 1 week after cuprizone withdrawal", "value": "Neither VP1.15 nor VP3.15 induced changes"}, {"measurement": "number of OPCs (PDGFRα+ cells) vs vehicle", "setting": "[2]; one week after cuprizone withdrawal", "value": "significantly lower number of OPCs"}, {"measurement": "IC50", "setting": "PDE7", "value": 1.59, "unit": "µM"}, {"measurement": "remyelination (normalized myelination index)", "setting": "[3]", "value": "increased"}]}
